Values quoted from earlier work, collected in patent US11646117B2, “Matrix factorization of antibiogram metadata” (priority 2019, dated 2023).
Where two headings read alike, the source gives them in different places.

System: Klebsiella pneumoniae (biosample SAMN07265011, strain DHQP1605752_NV)
Details: for Measurement (MIC): CLSI; for Resistance phenotype: testing standard CLSI

Compound | Measurement (MIC) (laboratory typing method MIC) | Resistance phenotype | Measurement (MIC) (MIC, platform Agar dilution) | Measurement (MIC) (MIC, platform Etest)
NCC[C@H](O)C(=O)N[C@@H]1C[C@H](N)[C@@H](O[C@H]2O[C@H](CN)[C@@H](O)[C@H](O)[C@H]2O)[C@H](O)[C@H]1O[C@H]1O[C@H](CO)[C@@H](O)[C@H](N)[C@H]1O [amikacin] | > 64 µg/mL | resistant | – | –
CC1(C)S[C@@H]2[C@H](NC(=O)[C@H](N)c3ccccc3)C(=O)N2[C@H]1C(=O)O [ampicillin] | > 32 µg/mL | resistant | – | –
C[C@H]1[C@H](NC(=O)/C(=N\OC(C)(C)C(=O)O)c2csc(N)n2)C(=O)N1S(=O)(=O)O [aztreonam] | > 64 µg/mL | resistant | – | –
Cc1nnc(SCC2=C(C(=O)O)N3C(=O)[C@@H](NC(=O)Cn4cnnn4)[C@H]3SC2)s1 [cefazolin] | > 8 µg/mL | resistant | – | –
CO/N=C(\C(=O)N[C@@H]1C(=O)N2C(C(=O)[O-])=C(C[N+]3(C)CCCC3)CS[C@H]12)c1csc(N)n1 [cefepime] | > 32 µg/mL | resistant | – | –
CO/N=C(\C(=O)N[C@@H]1C(=O)N2C(C(=O)O)=C(COC(C)=O)CS[C@H]12)c1csc(N)n1 [cefotaxime] | > 64 µg/mL | resistant | – | –
CO[C@@]1(NC(=O)Cc2cccs2)C(=O)N2C(C(=O)O)=C(COC(N)=O)CS[C@@H]21 [cefoxitin] | > 16 µg/mL | resistant | – | –
CC(C)(O/N=C(\C(=O)N[C@@H]1C(=O)N2C(C(=O)[O-])=C(C[n+]3ccccc3)CS[C@H]12)c1csc(N)n1)C(=O)O [ceftazidime] | > 128 µg/mL | resistant | – | –
CO/N=C(\C(=O)N[C@@H]1C(=O)N2C(C(=O)O)=C(CSc3nc(=O)c(=O)[nH]n3C)CS[C@H]12)c1csc(N)n1 [ceftriaxone] | > 32 µg/mL | resistant | – | –
O=C(N[C@H](CO)[C@H](O)c1ccc([N+](=O)[O-])cc1)C(Cl)Cl [chloramphenicol] | > 16 µg/mL | resistant | – | –
C[C@@H](O)[C@H]1C(=O)N2C(C(=O)O)=C(S[C@@H]3CN[C@H](CNS(N)(=O)=O)C3)[C@H](C)[C@H]12 [doripenem] | > 8 µg/mL | resistant | – | –
C[C@@H](O)[C@H]1C(=O)N2C(C(=O)O)=C(S[C@@H]3CN[C@H](C(=O)Nc4cccc(C(=O)O)c4)C3)[C@H](C)[C@H]12 [ertapenem] | > 8 µg/mL | resistant | – | –
C[C@@H]1O[C@@H]1P(=O)(O)O [fosfomycin] | – | – | 32 µg/mL | 16 µg/mL
C[C@@H](O)[C@H]1C(=O)N2C(C(=O)O)=C(S[C@@H]3CN[C@H](C(=O)N(C)C)C3)[C@H](C)[C@H]12 [meropenem] | > 8 µg/mL | resistant | – | –
CN(C)c1cc(NC(=O)CNC(C)(C)C)c(O)c2c1C[C@H]1C[C@H]3[C@H](N(C)C)C(O)=C(C(N)=O)C(=O)[C@@]3(O)C(O)=C1C2=O [tigecycline] | 4 µg/mL | intermediate | – | –
NC[C@H]1O[C@H](O[C@H]2[C@H](O)[C@@H](O[C@H]3O[C@H](CO)[C@@H](O)[C@H](N)[C@H]3O)[C@H](N)C[C@@H]2N)[C@H](N)C[C@@H]1O [tobramycin] | > 16 µg/mL | resistant | – | –
colistin | > 8 µg/mL | – | – | –
gentamicin | > 16 µg/mL | resistant | – | –
polymyxin B | > 8 µg/mL | – | – | –
